For 39 compounds, mortality results are on record in patent US8574607B2, “Spiroheterocyclic thiofuran dione derivatives” (Syngenta Crop Protection, Inc., priority 2009, dated 2013).

The subject of experiment [1] is Myzus persicae (Green Peach Aphid). Briefly: Example B11: Myzus persicae, mixed population, feeding/residual contact activity (sprayed pepper plants). It is filed as in vivo. The settings on record: 144 h, spray chamber, 6 days after treatment, read-out: activity against Myzus persicae (mortality).
Experiment [2] shares this test system. The following applies: 144 h, read-out: activity (mortality).
Experiment [3] has the same test system. As to the kind of experiment: Example B1: Myzus persicae, mixed population, feeding/residual contact activity, preventive (sprayed sunflower leaf discs). The settings on record: foliar, 144 h, read-out: activity (mortality).
Experiment [4] deals with Tetranychus urticae (Two-Spotted Spider Mite). The following applies: foliar, 192 h, read-out: activity (egg, larval and adult mortality).
Experiment [5] deals with Thrips tabaci (Onion Thrips). The settings on record: foliar, 144 h, read-out: activity (mortality).

Read-outs that look alike come from different tables or passages of the source. Bounds are passed on as bounds.

One may read the mortality as the share of the test organisms that died. As to `CCOC(=O)OC1=C(c2cc(C)ccc2C)C(=O)OC12CCN(OC)CC2` [P1.1, Carbonic acid 3-(2,5-dimethyl-phenyl)-8-methoxy-2-oxo-1-oxa-8-aza-spiro[4.5]dec-3-en-4-yl ester ethyl ester], in experiment [1], the mortality at 200 ppm was at least 80%. Further, the mortality at 400 ppm in experiment [2] was over 80%.

As to `CON1CCC2(CC1)OC(=O)C(c1cc(C)ccc1C)=C2OC(=O)C(C)(C)C` [P1.2], the mortality at 400 ppm in experiment [3] and in experiment [2] was over 80% each time.

For the compound `CCOC(=O)OC1=C(c2cc(C)c(C)cc2C)C(=O)OC12CCN(OC)CC2` [P1.3], in experiment [1], the mortality at 200 ppm is at least 80%. The mortality at 400 ppm in experiment [3] and in experiment [2] was over 80% in each case.

Take `CON1CCC2(CC1)OC(=O)C(c1cc(C)c(C)cc1C)=C2OC(=O)C(C)(C)C` [P1.4]: the mortality at 200 ppm in experiment [1] was at least 80%. The mortality at 400 ppm in experiment [3] and in experiment [2] was over 80% each time.

As to `CCOC(=O)OC1=C(c2c(C)cc(C)cc2C)C(=O)OC12CCN(OC)CC2` [P1.5, Carbonic acid ethyl ester 8-methoxy-2-oxo-3-(2,4,6-trimethylphenyl)-1-oxa-8-aza-spiro[4.5]dec-3-en-4-yl ester], the mortality at 400 ppm in experiment [3] and in experiment [2] was over 80% throughout.

Consider `CON1CCC2(CC1)OC(=O)C(c1c(C)cc(C)cc1C)=C2OC(=O)C(C)(C)C` [P1.6], for which, in experiment [1], the mortality at 200 ppm was at least 80%. Further, the mortality at 400 ppm in experiment [3] and in experiment [2] was over 80% in each case.

Turning to `CCOC(=O)OC1=C(c2c(C)cc(C)cc2C)C(=O)SC12CCN(OC)CC2` [P1.7, Carbonic acid ethyl ester 8-methoxy-2-oxo-3-(2,4,6-trimethylphenyl)-1-thia-8-aza-spiro[4.5]dec-3-en-4-yl ester], the mortality at 400 ppm in experiment [3] was over 80%.

In the case of `CCOC(=O)OC1=C(c2c(C)cc(Br)cc2C)C(=O)OC12CCN(OC)CC2` [P1.8], the mortality at 400 ppm in experiment [2] is over 80%.

`CON1CCC2(CC1)OC(=O)C(c1c(C)cc(C)cc1C)=C2OC(=O)CC(C)(C)C` [P1.9]: the mortality at 400 ppm in experiment [3] and in experiment [2] was over 80% throughout.

On to `CCC(C)(C)C(=O)OC1=C(c2c(C)cc(C)cc2C)C(=O)OC12CCN(OC)CC2` [P1.10], for which the mortality at 400 ppm in experiment [4], in experiment [3] and in experiment [2] was over 80% in each case.

In the case of `C=Cc1cc(C)c(C2=C(OC(=O)OCC)C3(CCN(OC)CC3)OC2=O)c(C)c1` [P1.12], the mortality at 400 ppm in experiment [2] was over 80%.

In the case of `CCOC(=O)OC1=C(c2ccc(Cl)cc2Cl)C(=O)OC12CCN(OC)CC2` [P1.14], the mortality at 400 ppm in experiment [3] and in experiment [2] was over 80% in each case.

With `CCOC(=O)OC1=C(c2c(C)ccc(Cl)c2C)C(=O)OC12CCN(OC)CC2` [P1.15], in experiment [4], the mortality at 400 ppm was over 80%.

As to `CCOC(=O)OC1=C(c2c(C)cc(C)cc2C)C(=O)OC12CCN(OCC)CC2` [P1.17], the mortality at 400 ppm in experiment [5], in experiment [4], in experiment [3] and in experiment [2] was over 80% throughout.

With `CCOC(=O)OC1=C(c2c(C)cc(C)c(Cl)c2C)C(=O)OC12CCN(OC)CC2` [P1.18], in experiment [2], the mortality at 400 ppm was over 80%.

On to `CCOC(=O)OC1=C(c2c(C)cc(C)cc2C)C(=O)OC12CCN(OCCOC)CC2` [P1.19], for which the mortality at 400 ppm in experiment [4] and in experiment [2] was over 80% in each case.

On to `CCOC(=O)OC1=C(c2c(F)ccc(Br)c2Cl)C(=O)OC12CCN(OC)CC2` [P1.29], for which, in experiment [4], the mortality at 400 ppm was over 80%.

As to `CCOC(=O)OC1=C(c2cc(C)c(Cl)cc2C)C(=O)OC12CCN(OC)CC2` [P1.33], the mortality at 400 ppm in experiment [2] was over 80%.

As for `CCOC(=O)OC1=C(c2c(C)cc(C)cc2C2CC2)C(=O)OC12CCN(OC)CC2` [P1.34], the mortality at 400 ppm in experiment [4] and in experiment [2] was over 80% throughout.

In the case of `CON1CCC2(CC1)OC(=O)C(c1cc(C)ccc1C)=C2O` [P2.1, 3-(2,5-dimethyl-phenyl)-4-hydroxy-8-methoxy-1-oxa-8-aza-spiro[4.5]dec-3-en-2-one], the mortality at 200 ppm in experiment [1] was at least 80%. Besides, the mortality at 400 ppm in experiment [3] and in experiment [2] was over 80% throughout.

As for `CON1CCC2(CC1)SC(=O)C(c1c(C)cc(C)cc1C)=C2O` [P2.4, 4-hydroxy-8-methoxy-3-(2,4,6-trimethyl-phenyl)-1-thia-8-aza-spiro[4.5]dec-3-en-2-one], the mortality at 400 ppm in experiment [4] and in experiment [3] was over 80% in each case.

Consider `CON1CCC2(CC1)OC(=O)C(c1c(C)cc(Br)cc1C)=C2O` [P2.5], for which the mortality at 400 ppm in experiment [3] and in experiment [2] was over 80% throughout.

On to `CON1CCC2(CC1)OC(=O)C(c1c(C)cc(Cl)cc1C)=C2O` [P2.6], for which the mortality at 400 ppm in experiment [4] and in experiment [3] was over 80% in each case.

`C=Cc1cc(C)c(C2=C(O)C3(CCN(OC)CC3)OC2=O)c(C)c1` [P2.7]: the mortality at 400 ppm in experiment [3] and in experiment [2] was over 80% each time.

Consider `CON1CCC2(CC1)OC(=O)C(c1ccc(C)cc1C)=C2O` [P2.8], for which the mortality at 200 ppm in experiment [1] was at least 80%. The mortality at 400 ppm in experiment [3] and in experiment [2] was over 80% in each case.

As to `CON1CCC2(CC1)OC(=O)C(c1ccc(Cl)cc1Cl)=C2O` [P2.9], the mortality at 400 ppm in experiment [4] was over 80%.

For the compound `CCON1CCC2(CC1)OC(=O)C(c1c(C)cc(C)cc1C)=C2O` [P2.12], the mortality at 400 ppm in experiment [5], in experiment [4], in experiment [3] and in experiment [2] was over 80% each time.

Take `CON1CCC2(CC1)OC(=O)C(c1c(C)cc(C)c(Cl)c1C)=C2O` [P2.13]: the mortality at 400 ppm in experiment [4] and in experiment [2] was over 80% each time.

As to `COCCON1CCC2(CC1)OC(=O)C(c1c(C)cc(C)cc1C)=C2O` [P2.14], the mortality at 400 ppm in experiment [5] and in experiment [4] was over 80% in each case.

As to `CON1CCC2(CC1)OC(=O)C(c1ccc(F)cc1)=C2O` [P2.20], in experiment [4], the mortality at 400 ppm is over 80%.

With `COc1ccccc1C1=C(O)C2(CCN(OC)CC2)OC1=O` [P2.34], in experiment [3], the mortality at 400 ppm was over 80%.

On to `CON1CCC2(CC1)OC(=O)C(c1ccc(Cl)cc1)=C2O` [P2.35], for which the mortality at 400 ppm in experiment [4] is over 80%.

As for `COc1c(Cl)cccc1C1=C(O)C2(CCN(OC)CC2)OC1=O` [P2.37], in experiment [3], the mortality at 400 ppm is over 80%.

Turning to `CON1CCC2(CC1)OC(=O)C(c1c(Br)cc(C)cc1Br)=C2O` [P2.40], the mortality at 400 ppm in experiment [4] is over 80%.

With `CON1CCC2(CC1)OC(=O)C(c1c(C)cc(Br)cc1Cl)=C2O` [P2.47], the mortality at 200 ppm in experiment [1] was at least 80%.

For `CON1CCC2(CC1)OC(=O)C(c1cc(C)c(Cl)cc1C)=C2O` [P2.48], in experiment [1], the mortality at 200 ppm is at least 80%.

Turning to `CON1CCC2(CC1)OC(=O)C(c1c(C)cc(C)cc1C1CC1)=C2O` [P2.49], the mortality at 400 ppm in experiment [4], in experiment [3] and in experiment [2] was over 80% in each case.

Regarding `C=Cc1cc(C)cc(C)c1C1=C(O)C2(CCN(OC)CC2)OC1=O` [P2.50], the mortality at 400 ppm in experiment [3] and in experiment [2] was over 80% throughout.

Consider `CCc1cc(C)cc(C)c1C1=C(O)C2(CCN(OC)CC2)OC1=O` [P2.51], for which the mortality at 400 ppm in experiment [4], in experiment [3] and in experiment [2] was over 80% throughout.
